Among the data in patent US7790740B2 (priority 2003, dated 2010) are IC50 values, retold here.

The test system of one assay is HIV-1 fusion. The assay is described as follows: gp160 induced cell-cell fusion assay (HeLa P4 / CHO-Tat10). Format: cell-based. The following applies: Human immunodeficiency virus 1, HeLaP4, read-out: IC50 against HIV-1 fusion (gp160 induced cell-cell fusion). The procedure:
The gp160 induced cell-cell fusion assay uses a HeLa P4 cell line and a CHO-Tat10 cell line.
The HeLa P4 cell line expresses CCR5 and CD4 and has been transfected with HIV-1 LTR-β-Galactosidase. The media for this cell line is Dulbecco modified eagle's medium (D-MEM) (without L-glutamine) containing 10% foetal calf serum (FCS), 2 mM L-glutamine penicillin/streptomycin (Pen/Strep; 100 U/mL penicillin+[…] streptomycin), and 1 μg/ml puromycin.
The CHO cell line is a Tat (transcriptional trans activator)-expressing clone from a CHO JRR17.1 cell line that has been transfected with pTat puro plasmid. […]
Upon cell fusion, Tat present in the CHO cell is able to transactivate the HIV-1 long terminal repeat (LTR) present in the HeLa cell leading to the expression of the β-Galactosidase enzyme. This expression is then measured using a Fluor Ace™ β-Galactosidase reporter assay kit (Bio-Rad cat no. 170-3150). This kit is a quantitative fluorescent assay that determines the level of expression of β-galactosidase using 4-methylumbelliferul-galactopyranoside (MUG) as substrate. β-Galactosidase hydrolyses the fluorogenic substrate resulting in release of the fluorescent molecule 4-methylumbelliferone (4 MU). Fluorescence of 4-methylumbelliferone is then measured on a fluorometer using an excitation wavelength of 360 nm and emission wavelength of 460 nm. […]

Another assay addresses CCR5 (Homo sapiens, UniProt P51681). The assay is described as follows: assay for CCR5 binding according to Combadiere et al. The text has this: Biol., 60, 147-52 (1996); and/or by using the intracellular calcium mobilisation assays as described by the same authors. Cell lines expressing the receptor of interest include those naturally expressing the receptor, such as PM-1, or IL-2 stimulated peripheral blood lymphocytes (PBL), or a cell engineered to express a recombinant receptor, such as CHO, 300.19, L1.2 or HEK-293.

Read-outs that look alike come from different tables or passages of the source.

CCR5, sequence (P51681 whole entry): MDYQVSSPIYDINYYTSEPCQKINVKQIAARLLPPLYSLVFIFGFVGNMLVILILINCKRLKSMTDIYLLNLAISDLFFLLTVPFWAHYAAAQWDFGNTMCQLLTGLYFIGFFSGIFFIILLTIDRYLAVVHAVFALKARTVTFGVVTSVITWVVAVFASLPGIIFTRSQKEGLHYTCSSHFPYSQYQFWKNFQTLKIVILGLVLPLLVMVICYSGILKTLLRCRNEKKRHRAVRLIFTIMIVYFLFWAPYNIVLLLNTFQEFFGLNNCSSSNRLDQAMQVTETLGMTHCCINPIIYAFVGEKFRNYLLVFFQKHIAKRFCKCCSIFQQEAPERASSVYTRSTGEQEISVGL

`CC(=O)N[C@@H](CCN1[C@@H]2CC[C@H]1C[C@@H](n1c(C)nc3c1CCN(C(C)=O)C3)C2)c1cccc(F)c1` [Example 1, N-{(1S)-3-[3-endo-(5-Acetyl-2-methyl-4,5,6,7-tetrahydro-1H-imidazo[4,5-c]pyridin-1-yl)-8-azabicyclo[3.2.1]oct-8-yl]-1-(3-fluorophenyl)propyl}acetamide]: the IC50 in the assay on HIV-1 fusion was 0.13 nM.
As to `CC(=O)N[C@@H](CCN1[C@@H]2CC[C@H]1C[C@@H](n1c(C)nc3c1CCN(C(=O)C(C)C)C3)C2)c1cccc(F)c1` [Example 4, N-{(1S)-3-[3-endo-(5-Isobutyryl-2-methyl-4,5,6,7-tetrahydro-1H-imidazo[4,5-c]pyridin-1-yl)-8-azabicyclo[3.2.1]oct-8-yl]-1-(3-fluorophenyl)propyl}acetamide], the IC50 at CCR5 (ligand MIP-1α, read-out: IC50 CCR5 binding (MIP-1α)) came out at 7.5 nM; at CCR5 (ligand MIP-1β, read-out: IC50 CCR5 binding (MIP-1β)), 7.3 nM; at CCR5 (ligand RANTES, read-out: IC50 CCR5 binding (RANTES)), 6.7 nM.
As to `CCC(=O)N1CCc2c(nc(C)n2[C@H]2C[C@H]3CC[C@@H](C2)N3CC[C@H](NC(C)=O)c2cccc(F)c2)C1` [Example 5, N-{(1S)-3-[3-endo-(2-Methyl-5-propionyl-4,5,6,7-tetrahydro-1H-imidazo[4,5-c]pyridin-1-yl)-8-azabicyclo[3.2.1]oct-8-yl]-1-(3-fluorophenyl)propyl}acetamide], the IC50 was 2.7 nM on CCR5 (IC50 CCR5 binding (MIP-1α), ligand MIP-1α); 2.4 nM on CCR5 (IC50 CCR5 binding (MIP-1β), ligand MIP-1β); 1.9 nM at CCR5 (IC50 CCR5 binding (RANTES), ligand RANTES); 0.12 nM in the assay with HIV-1 fusion.

One may read the IC50 as the point on the concentration scale where inhibition reaches its midpoint.
